Tested on: Mycolicibacterium smegmatis
Test: Antimycobacterial activity was determined against Mycobacterium smegmatis
Assay type: functional

Work on `O=C(O)c1cn(C2CC2)c2cc(N3CCNCC3)c(F)cc2c1=O` [CIPROFLOXACIN] yielded a Log of inhibitory zone of 1.28 log mm.

Source: ChEMBL document CHEMBL1149238, “A novel mixed-ligand antimycobacterial dimeric copper complex of ciprofloxacin and phenanthroline” (2004)
